Data published in patent publication US8314079B2, “Hyaluronic acid oligosaccharide fractions and drugs containing the same” (Seikagaku Corporation, priority 2000, dated 2012).

Experiments:
SD male rats [1] = test: Gastric ulcer caused by arrest by water immersion in rats; type: in vivo, rat
Experimental: A test substance was dissolved in carboxymethylcellulose (CMC) to obtain a test solution for administration. The concentration was determined depending on the dose mentioned below so that the volume of the solution to be administered should become 10 mL/kg.
Moreover, as a positive control solution, a conventional agent for treating gastritis and gastric ulcer (teprenone, geranylgeranylacetone, trade name: Selbex, Eisai) dissolved in CMC was used. The concentration was determined so that the dose and the volume of the solution to be administered should become 1 mg/kg (clinical dose) and 10 mL/kg, respectively. As a negative control solution, 0.5% CMC was used.
SD male rats of 5-week old were divided into a “negative control solution” administered group (n=8), “HA4 4 mg/kg” administered group (n=8), “HA4 20 mg/kg” administered group (n=8), “HA4 100 mg/kg” administered group (n=8) and “positive control solution” administered group (n=8).
The rats of the groups were starved from 16:00 of the day before the first administration day, orally administered with each of the aforementioned solutions at 8:00 of the next day and arrested by water immersion. The arrest by water immersion was continued until 8:00 of the next day (24 hours). In the course of the arrest, each solution was administered in the same manner as the first administration at 16:00 and 24:00.
Then, the rats were dissected, and the stomachs were extracted. The extracted stomachs were expanded by injection of 10% buffered formalin to smoothen the holds and fixed. Then, the blood adhering to walls of stomachs was removed by washing with water.
The area ratio of ulcerous portion degenerated in a dark brown color (ulcer area/glandular stomach area) was measured by using an image analysis apparatus (Image-Pro PLUS™ Version 3.0.1, produced by Media Cybernetics). The symbols * and ** in FIG. 48 indicate significant differences with p<0.05 and p<0.01, respectively (Williams multiple range test).

PC-12 cells = test: Cell death (apoptosis) of PC-12 cells in culture broth without blood serum, trypan blue staining; type: cell-based; conditions: 100 ng/mL, no blood serum, 24 hours
Experimental: Therefore, each of ΔHA2, HA4, ΔHA4, HA6, ΔHA6, HA8, HA10, HA12, HA84, L4 and L4L4 was added to a culture broth containing PC-12 cells at a concentration of 100 ng/mL (containing no blood serum), 24 hours after, the cells were stained with trypan blue, and a ratio of the number of viable cells (cells not stained with trypan blue) to the total cell number was calculated.

SD male rats [2] = test: Carbon tetrachloride hepatopathy model; type: in vivo, rat
Experimental: A test substance was dissolved in physiological saline to obtain a test solution for administration. The concentration was determined depending on the dose mentioned below so that the volume of the solution to be administered should become 5 mL/kg.
Moreover, as a positive control solution, FAD (flavine adenine dinucleotide, Wakamoto Pharmaceutical), of which effect on the carbon tetrachloride hepatopathy model had been reported (Yakubutsu Ryouhou (Pharmacotherapy), vol. 9, Special edition, pp. 46-53), was used at a dose of 10 mg/kg. Further, physiological saline was used as a negative control solution.
SD male rats of 5-week old were divided into a “negative control solution” administered group (n=8), “HA4 2 mg/kg” administered group (n=8), “HA4 10 mg/kg” administered group (n=8), “HA4 50 mg/kg” administered group (n=8), “positive control solution” administered group (n=8) and “normal” group (n=8).
The rats of the groups were starved from 16:00 of the day before the first administration day, orally administered with 100 mg/kg of carbon tetrachloride (CCl4) before 8:00 of the next day and then intraperitoneally administered with each of the aforementioned solutions at 8:00. Thereafter, the rats were bred with maintaining starvation, and administered with each of the aforementioned solutions in the same manner as the first administration at 16:00 and 24:00. The rats were fed after the administration at 24:00 and dissected at 8:00 on the next day.
After the dissection, blood was collected, and GOT activity and leucocyte count were measured. The GOT activity was measured by using a clinical chemistry autoanalyzer (COBAS MIRA S, Nippon Roche), and the leucocyte count was measured by using an automated hematology analyzer (Sysmex K-2000, produced by Sysmex).
IL-10 in peripheral blood was measured by using IL-10 Rat ELISA (produced by ENDOGEN). IL-8 was measured by using Panatest A Series Rat CINC-1 (IL-8) (Panapharm Laboratories). The symbol of ** in FIGS. 51 and 52 indicates presence of significant difference with p<0.01 (Williams multiple range test).

Balb/c mice = test: Concanavalin A hepatopathy model; type: in vivo, mouse; conditions: for average of GPT / average of GOT: 24 hours after ConA 15 mg/kg; for average of GPT: negative control about 5600; for average of GOT: negative control about 6000; for visual inspection of the livers (degree of hepatopathy): compared with negative and positive control solution groups
Experimental: The preparation, concentration, dose, volume to be administered etc. of the test solution are the same as those used in Experiment 1.
As a positive control solution, Stronger Neo-Minophagen C (Minophagen Pharmaceutical) was used at a dose of 5 mg/kg. This dose is the maximum clinical dose of the drug. Moreover, physiological saline was used as a negative control solution.
Balb/c mice of 8-week old were divided into a “negative control solution” administered group (n=12), “HA4 2 mg/kg” administered group (n=12), “HA4 10 mg/kg” administered group (n=12), “HA4 50 mg/kg” administered group (n=12), “positive control solution” administered group (n=12) and “normal” group (n=8).
Concanavalin A (ConA, Sigma) was injected via the caudal vein at a dose of 15 mg/kg. Then, each of the aforementioned solutions was administered via the caudal vein. Thereafter, the mice were bred for 24 hours.
The whole blood was collected from the abdominal aorta, and the GPT activity and GOT activity were measured by a clinical chemistry autoanalyzer (COBAS MIRA S, Nippon Roche). Further, the liver was extracted, and appearance of the liver was evaluated by visual inspection.

[3] = HA4 2, 10, 50 mg/kg intraperitoneal, dose dependence

SMILES: CC(=O)N[C@H]1[C@H](O[C@H]2[C@H](O)[C@@H](O)[C@H](O[C@H]3[C@H](O)[C@@H](CO)OC(O)[C@@H]3NC(C)=O)O[C@@H]2C(=O)O)O[C@H](CO)[C@@H](O)[C@@H]1O[C@@H]1O[C@H](C(=O)O)[C@@H](O)[C@H](O)[C@H]1O.[Na].[Na] (stereo partly drawn) [HA4, sodium β-D-glucopyranosyluronate-(1→3)-2-acetamido-2-deoxy-β-D-glucopyranosyl-(1→4)-(sodium β-D-glucopyranosyluronate)-(1→3)-2-acetamido-2-deoxy-D-glucopyranose]
- area ratio of ulcerous portion (ulcer area/glandular stomach area) (SD male rats [1]; 20 mg/kg oral, compared with positive control solution (teprenone 1 mg/kg)): lower than that observed for the positive control solution group
- area ratio of ulcerous portion (ulcer area/glandular stomach area) (SD male rats [1]; 100 mg/kg oral, compared with positive control solution (teprenone 1 mg/kg)): lower than that observed for the positive control solution group
- area ratio of ulcerous portion (ulcer area/glandular stomach area) (SD male rats [1]; all HA4 groups (4, 20, 100 mg/kg, oral, three administrations), compared with negative control solution group): significantly reduced
- suppression of cell death (ratio of the number of viable cells to the total cell number) (PC-12 cells): more notably suppressed the cell death
- GOT activity (SD male rats [2]; HA4 50 mg/kg administered group, intraperitoneal, compared with negative control solution group, p<0.05): significant reduction
- blood IL-10 level (SD male rats [2]; HA4 50 mg/kg, compared with negative control solution group, p<0.01): significantly higher
- blood IL-8 level (SD male rats [2]; [3]): decreased in a manner dependent on the dose of HA4
- blood IL-10 level (SD male rats [2]; [3]): increased in a manner dependent on the dose of HA4
- peripheral leucocyte count (SD male rats [2]; HA4 groups compared with FAD 10 mg/kg (positive control)): decreased compared even with FAD
- peripheral leucocyte count (SD male rats [2]; all HA4 groups (2, 10, 50 mg/kg intraperitoneal), compared with negative control solution group): significant decrease
- average of GPT (Balb/c mice; 10 mg/kg via the caudal vein): about 2200 I.U./L
- average of GOT (Balb/c mice; 10 mg/kg via the caudal vein): about 2000 I.U./L
- visual inspection of the livers (degree of hepatopathy) (Balb/c mice; 10 mg/kg): lower degree of hepathopathy
- average of GPT (Balb/c mice; 50 mg/kg via the caudal vein): about 1200 I.U./L
- average of GOT (Balb/c mice; 50 mg/kg via the caudal vein): about 1000 I.U./L
- visual inspection of the livers (degree of hepatopathy) (Balb/c mice; 50 mg/kg): lower degree of hepathopathy
